Data set [1] has as its system Intra-macrophage Amastigote Stage of L. donovani.
Data set [2] concerns promastigote stage of L. donovani. Description: Alamar blue. (Resazurin is reduced to fluorescent resorufin, in cell work by metabolically active cells.)
A further data set in a line: in vitro. The note with it: human.
In the next data set the test system is HDAC6. The note with it: cited from earlier work; for IC50: read-out: HDAC6 IC50, NI = No Inhibition at maximum tested concentration of 10 µM (percentage inhibition < 20%); for HDAC6 % inhibition at 10 µM: given if the IC50 was above 10 µM.
The test system of the next data set is HDAC8. The note with it: read-out: HDAC8 IC50; NI = No Inhibition at maximum tested concentration of 10 µM (percentage inhibition < 20%); cited from earlier work.
Data set [3] is described as follows: Cytotoxicity to uninfected THP1 macrophage cells. The note with it: human.
Data set [4] has as its system Intra-macrophage Amastigote Stage of L. donovani. Description: Amastigote-macrophage assay. The note with it: for Cytotoxic activity against intra-macrophage amastigote (in words): THP1 host cells, 3HP values in Table S1 (not available); for Potency enhancement, intra-macrophage amastigote relative to axenic amastigote: comparing Tables 1 and 2.
For data set [5], the system named is axenic amastigote of L. donovani. Description: Alamar blue. The data set is classed as cell-based.
Setting [6] is: L. donovani promastigote, maximum concentration tested 40 µg/mL.
[7] abbreviates: uninfected THP1 macrophage cells.
Setting [8] is: L. donovani axenic amastigote, maximum tested concentration 40 µg/mL.

Values after ≈ are worked out from the molar mass of the structure shown. Like-named read-outs stand apart in the source and are kept apart here. Marks after values point to notes of the source that are not given here.

The term IC50 denotes the point on the concentration scale where inhibition reaches its midpoint. Regarding `C[C@@H]1[C@H](O)[C@@H](C)/C=C/C=C/C=C/C=C/C=C/C=C/C=C/[C@H](O[C@@H]2O[C@H](C)[C@@H](O)[C@H](N)[C@@H]2O)C[C@@H]2O[C@](O)(C[C@@H](O)C[C@@H](O)[C@H](O)CC[C@@H](O)C[C@@H](O)CC(=O)O[C@H]1C)C[C@H](O)[C@H]2C(=O)O` [Amphotericin B], the “Cytotoxic activity against intra-macrophage amastigote (in words)” value (from here on “Cytotoxic activity”) in data set [1] is reported as “potently cytotoxic”. Besides, the IC50 in data set [2] (Leishmania donovani, read-out: Promastigote IC50) is 0.4 µg/mL (≈ 0.433 µM); in the data set “in vitro”, more than 10 µg/mL.
Turning to `Oc1cccnc1O` [Compound 1a], the IC50 in the data set with HDAC6 and in the data set with HDAC8 was more than 10000 nM each time. Moreover, in data set [2] (setting [6]), the “Cytotoxicity to promastigote stage (in words)” value is “inactive”.
As for `Oc1ccc[nH]c1=S` [Compound 1b], the half-inhibitory concentration (IC50) with HDAC6 is 681 ± 110 nM; in the data set on HDAC8 it was 3680 ± 1200 nM; in data set [3] (setting [7]), more than 10 µg/mL. In addition, the “Cytotoxicity to promastigote stage (in words)” value in data set [2] (setting [6]) is listed as “weakly cytotoxic”.
As for `O=c1c(O)cccn1Cc1ccccc1` [Compound 2a], the IC50 with HDAC6 and with HDAC8 was more than 10000 nM throughout.
For `Oc1cccn(Cc2ccccc2)c1=S` [Compound 2b], the IC50 was 457 ± 27 nM with HDAC6, 1270 ± 200 nM in the data set with HDAC8 and more than 10 µg/mL in data set [3] (setting [7]).
With `O=c1c(O)cccn1Cc1ccc(-c2ccccc2)cc1` [Compound 3a], the half-maximal inhibitory concentration (IC50) in the data set on HDAC6 and in the data set with HDAC8 was more than 10000 nM throughout. Further, in data set [4], the “Cytotoxic activity” value is reported as “moderate to good cytotoxic activities”.
Take `Oc1cccn(Cc2ccc(-c3ccccc3)cc2)c1=S` [Compound 3b]: the values for the half-maximal inhibitory concentration (IC50) (in the data set on HDAC6; with HDAC8; in data set [3] (setting [7])) were 847 ± 188 nM, 4280 ± 1550 nM and more than 10 µg/mL, respectively. For the same molecule, in data set [4], the “Potency enhancement, intra-macrophage amastigote relative to axenic amastigote” value is given as 5- to 25 fold.
For the molecule `N#Cc1ccc(-c2ccc(Cn3cccc(O)c3=O)cc2)cc1` [Compound 4a], the IC50 in the data set with HDAC6 and with HDAC8 was more than 10000 nM each time. Moreover, in data set [4], the “Cytotoxic activity” value is reported as “moderately active”. For the same molecule, the “Cytotoxicity to axenic amastigote (in words)” value in data set [5] (setting [8]) is given as “about equipotent to both stages of L. donovani”.
For the molecule `N#Cc1ccc(-c2ccc(Cn3cccc(O)c3=S)cc2)cc1` [Compound 4b], the IC50 in the data set with HDAC6 was 957 ± 159 nM; in the data set on HDAC8, 2080 ± 459 nM; in data set [3] (setting [7]), more than 10 µg/mL. Besides, the “Potency enhancement, intra-macrophage amastigote relative to axenic amastigote” value in data set [4] is recorded as 5- to 25 fold.
Take `N#Cc1cccc(-c2ccc(Cn3cccc(O)c3=O)cc2)c1` [Compound 5a]: the IC50 in the data set on HDAC6 and in the data set on HDAC8 was more than 10000 nM each time. The “Cytotoxic activity” value in data set [4] was “moderate to good cytotoxic activities”.
Take `N#Cc1cccc(-c2ccc(Cn3cccc(O)c3=S)cc2)c1` [Compound 5b]: in the data set on HDAC6, the “HDAC6 % inhibition at 10 µM” value was 44% ^†. Further, the figures for the IC50 (in the data set on HDAC8; in data set [3] (setting [7])) were 1700 ± 717 nM and more than 10 µg/mL, respectively.
Take `N#Cc1ccccc1-c1ccc(Cn2cccc(O)c2=O)cc1` [Compound 6a]: the IC50 with HDAC6 and with HDAC8 was more than 10000 nM each time.
Consider `N#Cc1ccccc1-c1ccc(Cn2cccc(O)c2=S)cc1` [Compound 6b], for which the IC50 in the data set with HDAC6 is 372 ± 35 nM; in the data set on HDAC8, 1910 ± 771 nM; in data set [3] (setting [7]), more than 10 µg/mL. Moreover, the “Cytotoxic activity” value in data set [4] was “inactive”.
In the case of `Cc1ccc(-c2ccc(Cn3cccc(O)c3=O)cc2)cc1` [Compound 7a], the IC50 in the data set on HDAC6 and in the data set on HDAC8 was more than 10000 nM throughout.
Take `Cc1ccc(-c2ccc(Cn3cccc(O)c3=S)cc2)cc1` [Compound 7b]: the IC50 in the data set on HDAC6 is 454 ± 42 nM; in the data set on HDAC8, 800 ± 304 nM; in data set [3] (setting [7]), more than 10 µg/mL.
`Cc1cccc(-c2ccc(Cn3cccc(O)c3=O)cc2)c1` [Compound 8a]: the IC50 in the data set on HDAC6 and with HDAC8 was more than 10000 nM each time.
With `Cc1cccc(-c2ccc(Cn3cccc(O)c3=S)cc2)c1` [Compound 8b], the IC50 was 812 ± 286 nM in the data set with HDAC6, 2500 ± 1180 nM in the data set with HDAC8 and more than 10 µg/mL in data set [3] (setting [7]). In addition, in data set [4], the “Cytotoxic activity” value was “inactive”.
As for `Cc1ccccc1-c1ccc(Cn2cccc(O)c2=O)cc1` [Compound 9a], the IC50 in the data set on HDAC6 and with HDAC8 was more than 10000 nM each time.
On to `Cc1ccccc1-c1ccc(Cn2cccc(O)c2=S)cc1` [Compound 9b], for which the figures for the IC50 (in the data set with HDAC6; in the data set on HDAC8; in data set [3] (setting [7])) were 306 ± 69 nM, 3100 ± 1650 nM and more than 10 µg/mL, respectively.
In the case of `CN(C)c1ccc(-c2ccc(Cn3cccc(O)c3=O)cc2)cc1` [Compound 10a], the IC50 with HDAC6 and with HDAC8 was more than 10000 nM in each case. Further, the “Cytotoxicity to axenic amastigote (in words)” value in data set [5] (setting [8]) was “about equipotent to both stages of L. donovani”.
Regarding `CN(C)c1ccc(-c2ccc(Cn3cccc(O)c3=S)cc2)cc1` [Compound 10b], the IC50 with HDAC6 was more than 10000 nM; in the data set with HDAC8, 2860 ± 944 nM; in data set [3] (setting [7]) it was more than 10 µg/mL. Also, in data set [4], the “Potency enhancement, intra-macrophage amastigote relative to axenic amastigote” value is reported as 5- to 25 fold.
On to `CN(C)c1ccc(-c2ccc(Cn3cccc(O)c3=O)cc2)cn1` [Compound 11a], for which the IC50 with HDAC6 and in the data set on HDAC8 was more than 10000 nM in each case.
With `CN(C)c1ccc(-c2ccc(Cn3cccc(O)c3=S)cc2)cn1` [Compound 11b], the IC50 was 2390 ± 458 nM in the data set on HDAC6, more than 10000 nM in the data set on HDAC8 and more than 10 µg/mL in data set [3] (setting [7]).
Consider `O=c1c(O)cccn1Cc1cn(-c2ccccc2)nn1` [Compound 12a], for which the IC50 with HDAC6 and in the data set with HDAC8 was more than 10000 nM in each case.
As for `Oc1cccn(Cc2cn(-c3ccccc3)nn2)c1=S` [Compound 12b], the “HDAC6 % inhibition at 10 µM” value in the data set with HDAC6 is 41% ^†. Besides, the IC50 with HDAC8 is 1570 ± 1070 nM; in data set [3] (setting [7]), more than 10 µg/mL.
Take `CN(C)c1ccc(-n2cc(Cn3cccc(O)c3=O)nn2)cc1` [Compound 13a]: the 50% inhibitory concentration (IC50) in the data set with HDAC6 and in the data set with HDAC8 was more than 10000 nM in each case. Further, in data set [4], the “Cytotoxic activity” value was “moderate to good cytotoxic activities”.
Turning to `CN(C)c1ccc(-n2cc(Cn3cccc(O)c3=S)nn2)cc1` [Compound 13b], the IC50 with HDAC6 is 1020 ± 99 nM; in the data set on HDAC8 it was 1870 ± 723 nM; in data set [3] (setting [7]) it was more than 10 µg/mL.
`COc1ccc(Cn2ccc3ccc(C(=O)NO)cc32)cc1` [PCI-34051, reference compound]: the “Cytotoxic activity” value in data set [4] was “inactive”. In addition, in data set [2] (setting [6]), the “Cytotoxicity to promastigote stage (in words)” value is reported as “minimal effect”. Also, the IC50 in data set [3] was more than 10 µg/mL.
With `N=C(N)c1ccc(OCCCCCOc2ccc(C(=N)N)cc2)cc1` [Pentamidine, pentamidine], the “Cytotoxic activity” value in data set [1] is “potently cytotoxic”. The IC50 in the data set “in vitro” is more than 10 µg/mL.
As to `O=C(CCCCCCC(=O)Nc1ccccc1)NO` [SAHA, suberoylanilide hydroxamic acid, reference compound], in data set [2], the “Cytotoxicity to promastigote stage (in words)” value is “minimal effect”. In addition, the “Cytotoxicity to axenic amastigote (in words)” value in data set [5] is given as “non-toxic”.
In data set [3] (setting [7]), `CN1CCc2c(c3ccccc3n2Cc2ccc(C(=O)NO)cc2)C1` [Tubastatin A, reference compound] had an IC50 of more than 10 µg/mL.
